Reference: article PMC8233208 (The Journal of Biological Chemistry, 2021)

Test system: ZIKV (MR766)
Experiment: ZIKV total RNA replication by qRT-PCR in infected A549 cells
Format: cell-based, ZIKV African-lineage MR766 strain
Details: 10 μM, RNA replication and NS5 assays

destruxin A [Compound 12]
antiviral (anti-ZIKV) activity, comparison among tested compounds: more potent activities
